The conditions of series [1]: comparison of embedding media; cited from earlier work.
Series [2] in a line: Vapor pressures of embedding media (FIG. 1, from the literature). From the text:
The vapor pressures of various embedding media are known from the literature.

In the case of `CCOC(=O)C=Cc1ccccc1` [ethyl cinnamate, reference compound], in series [1], the “vapor pressure (in words)” value is reported as “comparatively high vapor pressure”.

`O=C(Cc1ccccc1)OCc1ccccc1` [benzyl phenylacetate, benzyl 2-phenylacetate]: the “vapor pressure, times lower than that of ethyl cinnamate” value in series [2] (at 25° C.) was “approximately 275 times”. Besides, the “volatility, times less volatile than DBE” value in series [2] (expanded section in FIG. 1) is reported as “about 4 times”. In series [1], the “vapor pressure (in words)” value is reported as “lowest vapor pressure”.

The record behind these values is patent US20240102898A1, “IMPROVED METHOD FOR OPTICALLY CLEARING A TISSUE SAMPLE FOR A LIGHT MICROSCOPY EXAMINATION” (MobiCron GmbH, priority 2020, published 2024).
